In PubChem BioAssay (NCI):
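Protocol summary: plate cells (96-well), add compound at 5 concentrations, incubate 48 h, interpolate endpoints linearly. GI50 marks 50% less growth. TGI: concentration producing complete growth inhibition.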

How the values were obtained:
Assay in all cases: NCI anticancer screen, dose series, 48 h
MCF7 breast = tested on: MCF7 breast
SN12C renal = tested on: SN12C renal
SR leukemia = tested on: SR leukemia
HCT-15 colon = tested on: HCT-15 colon
SK-MEL-5 melanoma = tested on: SK-MEL-5 melanoma
KM12 colon = tested on: KM12 colon
M14 melanoma = tested on: M14 melanoma
A498 renal = tested on: A498 renal
SNB-75 CNS = tested on: SNB-75 CNS
MDA-N = tested on: MDA-N

SMILES | TGI (MCF7 breast) [µM] | TGI (SN12C renal) [µM] | TGI (SR leukemia) [µM] | TGI (HCT-15 colon) [µM] | TGI (SK-MEL-5 melanoma) [µM] | TGI (KM12 colon) [µM] | TGI (M14 melanoma) [µM] | TGI (A498 renal) [µM] | TGI (SNB-75 CNS) [µM] | TGI (MDA-N) [µM] | GI50 (SN12C renal) [nM] | GI50 (SR leukemia) [µM] | GI50 (KM12 colon) [nM] | GI50 (M14 melanoma) [nM] | GI50 (A498 renal) [nM] | GI50 (SNB-75 CNS) [nM] | GI50 (MCF7 breast) [nM] | GI50 (HCT-15 colon) [nM] | GI50 (SK-MEL-5 melanoma) [nM]
N=C(N)SCc1nc(-c2ccc(Cl)cc2)no1 | 30.1 | 37.5 | 21.9 | 55.9 | > 100 | > 100 | 45.6 | 32.3 | 59.4 |  |  |  |  |  |  |  |  |  | 
C1=CC2C(C3CN(c4ccccc4)N=C13)C1C3C4C=CC21C=CC43 (centres undefined) | > 100 | > 100 |  | > 100 | > 100 | > 100 | > 100 | > 100 | > 100 |  |  |  |  |  |  |  |  |  | 
Clc1ccc(C2SCc3nc4ccccc4n32)cc1 (centres undefined) |  | 42.7 |  | > 100 | 23.3 |  | 68.1 | 55.5 | 24.9 |  |  |  |  |  |  |  |  |  | 
COc1cc2nc(-c3cccs3)nc(N3CCN(c4ccccc4)CC3)c2cc1OC | > 100 | > 100 | > 100 | > 100 | > 100 | > 100 | > 100 | > 100 | > 100 |  |  |  |  |  |  |  |  |  | 
N#Cc1sc2c(c1OC(=O)c1ccco1)c(=O)n(-c1ccccc1)c(=S)n2-c1ccccc1 | > 100 | > 100 | > 10 | 52.4 | 33.7 | > 100 | 73.3 |  | 84.5 | 47.1 |  |  |  |  |  |  |  |  | 
OC(CCN1CCN(CCOC(c2ccccc2)c2ccccc2)CC1)c1ccccc1 (centres undefined) | 47.4 | 82.3 |  | 37.1 | 29.6 | 51.1 | 34.1 | 21.6 | > 100 | 36.8 |  |  |  |  |  |  |  |  | 
Cc1ccc(C)n1-c1ccccc1C1C=Cn2c(=O)oc3c(OC(C)C)c(OC(C)C)c(O)c1c32 (centres undefined) | > 100 | > 100 |  | > 100 | > 100 | > 100 | > 100 | > 100 | > 100 |  |  |  |  |  |  |  |  |  | 
CC(=O)/C=C(/C)[O-].CC(=O)/C=C(/C)[O-].CC(=O)[CH-]C(C)=O.CC(=O)[CH-]C(C)=O.[Zr+4] |  | > 100 | > 100 |  |  | > 100 | > 100 | > 100 | > 100 |  | > 100000 | > 100 | > 100000 | > 100000 | > 100000 | > 100000 |  |  | 
OCc1ccc2c(c1)CC1(Cc3ccccc3C1)C2 |  | 45.8 | > 100 | > 100 | 23.6 | 57.3 |  | > 100 | 30.2 | 20 |  |  |  |  |  |  |  |  | 
O=[N+]([O-])c1c(O)c2nonc2c2nn(-c3ccccc3)nc12 | > 100 | > 100 | > 100 | > 100 | > 100 | > 100 | > 100 |  | > 100 | > 100 |  |  |  |  |  |  |  |  | 
CCCN=C1NC(C)=CSC(Nc2ccccc2)=C1C#N | > 100 | > 100 | > 100 | > 100 | > 100 | > 100 | > 100 | > 100 |  | > 100 |  |  |  |  |  |  |  |  | 
Cc1ccc2sc3c(NCCCN)nc4ccccc4c3c(=O)c2c1 | 3.36 | 3.13 |  | 3.15 | 3.35 | 3.51 | 3.61 | 4.64 | 3.56 |  | 1680 |  | 1900 | 1910 | 1870 | 1640 | 1770 | 1610 | 1790
COc1ccc(/C(=N/O)c2ccccc2C2=Nc3ccccc3C(NCc3ccccc3)O2)cc1C (centres undefined) | > 100 | > 100 | > 100 | > 100 | 32.8 | > 100 | > 100 |  | 75.4 | > 100 |  |  |  |  |  |  |  |  | 
O=C1C(Cl)N(c2ccc([N+](=O)[O-])cc2)C1c1c[nH]c2ccccc12 (centres undefined) |  | > 100 | > 100 |  | > 100 | > 100 | > 100 |  | > 100 |  |  |  |  |  |  |  |  |  | 
CN(C)C(=O)N1N[C@H](c2ccccc2)[C@@H]1c1ccccc1 | > 100 | > 100 |  | > 100 | > 100 | > 100 | > 100 | > 100 | > 100 | > 100 |  |  |  |  |  |  |  |  | 
CCOC(=O)c1sc2nc(SC)nc3c2c1NCN3C |  | > 100 |  | > 100 | > 100 | > 100 | > 100 | 57.6 | 22.9 | > 100 |  |  |  |  |  |  |  |  | 
CCN(CC)/N=C\c1c2ccccc2cc2ccccc12 |  | > 100 | > 100 | > 100 | 40.2 | > 100 | 51.6 | > 100 | 68.7 | > 100 |  |  |  |  |  |  |  |  | 
COc1cc2nc(-c3cccs3)nc(Nc3ccccc3C(=O)NN)c2cc1OC | > 100 | > 100 | > 100 | > 100 | > 100 | > 100 | > 100 | > 100 | > 100 |  |  |  |  |  |  |  |  |  | 
O=C1CCCC1CC(CN1CCOCC1)Sc1nnnn1-c1ccccc1 (centres undefined) | > 100 | > 100 | > 100 |  | > 100 | > 100 | > 100 | > 100 | 96.7 | > 100 |  |  |  |  |  |  |  |  | 
COP(=O)(CP(=O)(OC)OCCC(C)CCC=C(C)C)OC (centres undefined) | > 100 | > 100 |  | > 100 | > 100 | > 100 | > 100 | > 100 | > 100 | > 100 |  |  |  |  |  |  |  |  | 
CSc1nnnc2ccccc12 | > 100 | > 100 |  | > 100 | > 100 | > 100 | > 100 | > 100 | > 100 | > 100 |  |  |  |  |  |  |  |  | 
CCn1c(CCCc2nc3c([nH]2)c(=O)n(C)c(=O)n3C)nc2c1c(=O)n(C)c(=O)n2C | > 100 | > 100 |  | > 100 | 27.8 | > 100 | > 100 | > 100 |  | > 100 |  |  |  |  |  |  |  |  | 
O=C1Sc2ccccc2C(=O)N2CCSC12 (centres undefined) |  | > 100 | > 100 | > 100 | > 100 | > 100 | > 100 | > 100 |  |  |  |  |  |  |  |  |  |  | 
